The supplement of paper PMC10307832

How the values were obtained:
Assay in all cases: relative viability (nuclei count vs DMSO), 5 days (fraction); higher = more cells survive
201T = test system: 201T
Procedure, shortened: (§1)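 Cells from lung cancer lines were seeded into 1536-well plates and, one day later, dosed by pin tool. Treatments were either a single drug or a fixed dose of an anchor drug with five library-drug doses (not always all listed) in √10 steps. After 5 days, nuclei were stained in a one-step fixation (final 0.05% Triton X-100, 1% formaldehyde, 1 ug/ml Hoechst) and counted on 4× images, and relative viability is the treated-to-vehicle nuclei ratio, as the median of duplicate plates.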

NCI-H647 = test system: NCI-H647
Procedure, shortened: as §1

EMC-BAC-2 = test system: EMC-BAC-2
Procedure, shortened: as §1

NCI-H3122 = test system: NCI-H3122
Procedure, shortened: as §1

NCI-H2009 = test system: NCI-H2009
Procedure, shortened: as §1

H3255 = test system: H3255
Procedure, shortened: as §1

NCI-H2126 = test system: NCI-H2126
Procedure, shortened: as §1

NCI-H2170 = test system: NCI-H2170
Procedure, shortened: as §1

SK-MES-1 = test system: SK-MES-1
Procedure, shortened: as §1

LK-2 = test system: LK-2
Procedure, shortened: as §1

NCI-H596 = test system: NCI-H596
Procedure, shortened: as §1

NCI-H2087 = test system: NCI-H2087
Procedure, shortened: as §1

PC-14 = test system: PC-14
Procedure, shortened: as §1

NCI-H1734 = test system: NCI-H1734
Procedure, shortened: as §1

NCI-H322M = test system: NCI-H322M
Procedure, shortened: as §1

NCI-H441 = test system: NCI-H441
Procedure, shortened: as §1

NCI-H1755 = test system: NCI-H1755
Procedure, shortened: as §1

ChaGo-K-1 = test system: ChaGo-K-1
Procedure, shortened: as §1

NCI-H1651 = test system: NCI-H1651
Procedure, shortened: as §1

CAL-12T = test system: CAL-12T
Procedure, shortened: as §1

ABC-1 = test system: ABC-1
Procedure, shortened: as §1

LXF-289 = test system: LXF-289
Procedure, shortened: as §1

HOP-62 = test system: HOP-62
Procedure, shortened: as §1

O=C(O)CCCCC(CCSCc1ccccc1)SCc1ccccc1 (centres undefined) [CPI-613] + COc1cccc2cc(-c3nc([C@H]4CC[C@H](C(=O)O)CC4)n4ncnc(N)c34)[nH]c12 [OSI-027] (partner 0.5 µM)
relative viability (201T; first compound 5 µM): 0.754 | relative viability (201T; first compound 15.81 µM): 0.711 | relative viability (201T; first compound 50 µM): 0.606 | relative viability (201T; first compound 158.11 µM): 0.678 | relative viability (201T; first compound 500 µM): 0.818 | relative viability (NCI-H647; first compound 5 µM): 0.667 | relative viability (NCI-H647; first compound 15.81 µM): 0.498 | relative viability (NCI-H647; first compound 50 µM): 0.445 | relative viability (NCI-H647; first compound 158.11 µM): 0.147 | relative viability (NCI-H647; first compound 500 µM): 0.0299 | relative viability (EMC-BAC-2; first compound 5 µM): 0.385 | relative viability (EMC-BAC-2; first compound 15.81 µM): 0.334 | relative viability (EMC-BAC-2; first compound 50 µM): 0.337 | relative viability (EMC-BAC-2; first compound 158.11 µM): 0.181 | relative viability (EMC-BAC-2; first compound 500 µM): 0.0272 | relative viability (NCI-H3122; first compound 5 µM): 0.9 | relative viability (NCI-H3122; first compound 15.81 µM): 0.876 | relative viability (NCI-H3122; first compound 50 µM): 0.7 | relative viability (NCI-H3122; first compound 158.11 µM): 0.39 | relative viability (NCI-H3122; first compound 500 µM): 0.045 | relative viability (NCI-H2009; first compound 5 µM): 0.599 | relative viability (NCI-H2009; first compound 15.81 µM): 0.58 | relative viability (NCI-H2009; first compound 50 µM): 0.46 | relative viability (NCI-H2009; first compound 158.11 µM): 0.0782 | relative viability (NCI-H2009; first compound 500 µM): 0.0289 | relative viability (H3255; first compound 5 µM): 0.569 | relative viability (H3255; first compound 15.81 µM): 0.501 | relative viability (H3255; first compound 50 µM): 0.612 | relative viability (H3255; first compound 500 µM): 0.471 | relative viability (NCI-H2126; first compound 5 µM): 0.66 | relative viability (NCI-H2126; first compound 15.81 µM): 0.643 | relative viability (NCI-H2126; first compound 50 µM): 0.7 | relative viability (NCI-H2126; first compound 158.11 µM): 0.448 | relative viability (NCI-H2126; first compound 500 µM): 0.63 | relative viability (NCI-H2170; first compound 5 µM): 0.718 | relative viability (NCI-H2170; first compound 15.81 µM): 0.715 | relative viability (NCI-H2170; first compound 50 µM): 0.662 | relative viability (NCI-H2170; first compound 158.11 µM): 0.482 | relative viability (NCI-H2170; first compound 500 µM): 0.101 | relative viability (SK-MES-1; first compound 5 µM): 0.592 | relative viability (SK-MES-1; first compound 15.81 µM): 0.526 | relative viability (SK-MES-1; first compound 50 µM): 0.465 | relative viability (SK-MES-1; first compound 158.11 µM): 0.12 | relative viability (SK-MES-1; first compound 500 µM): 0.0545 | relative viability (LK-2; first compound 5 µM): 0.189 | relative viability (LK-2; first compound 15.81 µM): 0.19 | relative viability (LK-2; first compound 50 µM): 0.18 | relative viability (LK-2; first compound 158.11 µM): 0.161 | relative viability (LK-2; first compound 500 µM): 0.128 | relative viability (NCI-H596; first compound 5 µM): 0.673 | relative viability (NCI-H596; first compound 15.81 µM): 0.623 | relative viability (NCI-H596; first compound 50 µM): 0.832 | relative viability (NCI-H596; first compound 158.11 µM): 0.489 | relative viability (NCI-H596; first compound 500 µM): 0.0755 | relative viability (NCI-H2087; first compound 5 µM): 0.501 | relative viability (NCI-H2087; first compound 15.81 µM): 0.462 | relative viability (NCI-H2087; first compound 50 µM): 0.471 | relative viability (NCI-H2087; first compound 158.11 µM): 0.195 | relative viability (NCI-H2087; first compound 500 µM): 0.0169 | relative viability (PC-14; first compound 5 µM): 0.736 | relative viability (PC-14; first compound 15.81 µM): 0.756 | relative viability (PC-14; first compound 50 µM): 0.702 | relative viability (PC-14; first compound 158.11 µM): 0.0567 | relative viability (PC-14; first compound 500 µM): 0.0096 | relative viability (NCI-H1734; first compound 5 µM): 0.58 | relative viability (NCI-H1734; first compound 15.81 µM): 0.55 | relative viability (NCI-H1734; first compound 50 µM): 0.571 | relative viability (NCI-H1734; first compound 158.11 µM): 0.325 | relative viability (NCI-H1734; first compound 500 µM): 0.1 | relative viability (NCI-H322M; first compound 5 µM): 0.511 | relative viability (NCI-H322M; first compound 15.81 µM): 0.422 | relative viability (NCI-H322M; first compound 50 µM): 0.515 | relative viability (NCI-H322M; first compound 158.11 µM): 0.336 | relative viability (NCI-H322M; first compound 500 µM): 0.0015 | relative viability (NCI-H441; first compound 5 µM): 0.615 | relative viability (NCI-H441; first compound 15.81 µM): 0.596 | relative viability (NCI-H441; first compound 50 µM): 0.586 | relative viability (NCI-H441; first compound 158.11 µM): 0.255 | relative viability (NCI-H441; first compound 500 µM): 0.0397 | relative viability (NCI-H1755; first compound 5 µM): 0.693 | relative viability (NCI-H1755; first compound 15.81 µM): 0.687 | relative viability (NCI-H1755; first compound 50 µM): 0.66 | relative viability (NCI-H1755; first compound 158.11 µM): 0.504 | relative viability (NCI-H1755; first compound 500 µM): 0.207 | relative viability (ChaGo-K-1; first compound 5 µM): 0.61 | relative viability (ChaGo-K-1; first compound 15.81 µM): 0.509 | relative viability (ChaGo-K-1; first compound 50 µM): 0.53 | relative viability (ChaGo-K-1; first compound 158.11 µM): 0.377 | relative viability (ChaGo-K-1; first compound 500 µM): 0.0966 | relative viability (NCI-H1651; first compound 5 µM): 0.66 | relative viability (NCI-H1651; first compound 15.81 µM): 0.79 | relative viability (NCI-H1651; first compound 50 µM): 0.616 | relative viability (NCI-H1651; first compound 158.11 µM): 0.333 | relative viability (NCI-H1651; first compound 500 µM): 0.0775 | relative viability (CAL-12T; first compound 5 µM): 0.739 | relative viability (CAL-12T; first compound 15.81 µM): 0.515 | relative viability (CAL-12T; first compound 50 µM): 0.593 | relative viability (CAL-12T; first compound 158.11 µM): 0.0379 | relative viability (CAL-12T; first compound 500 µM): 0.0106 | relative viability (ABC-1; first compound 5 µM): 0.404 | relative viability (ABC-1; first compound 15.81 µM): 0.443 | relative viability (ABC-1; first compound 50 µM): 0.49 | relative viability (ABC-1; first compound 158.11 µM): 0.175 | relative viability (ABC-1; first compound 500 µM): 0.167 | relative viability (LXF-289; first compound 5 µM): 0.788 | relative viability (LXF-289; first compound 15.81 µM): 0.694 | relative viability (LXF-289; first compound 50 µM): 0.733 | relative viability (LXF-289; first compound 158.11 µM): 0.404 | relative viability (LXF-289; first compound 500 µM): 0.0382 | relative viability (HOP-62; first compound 5 µM): 0.74 | relative viability (HOP-62; first compound 15.81 µM): 0.759 | relative viability (HOP-62; first compound 50 µM): 0.799 | relative viability (HOP-62; first compound 158.11 µM): 0.477 | relative viability (HOP-62; first compound 500 µM): 0.301
